Results published in US10793576B2, “Compound used as Bruton's tyrosine kinase inhibitor and preparation method and application thereof” (Chengdu Brilliant Pharmaceutical Co., LTD., priority 2017, dated 2020).

Legend:
[1] = test system: DOHH2 cells; assay: Cell proliferation inhibition in vitro, DOHH2 cells by CTG assay; assay type: cell-based; settings: Homo sapiens, DOHH-2, 72 hours, read-out: Inhibitions of cell activities IC50 (nM) DOHH2
[2] = molecular target: hERG potassium channel (Homo sapiens (Human), UniProt Q12809); assay: hERG experiment to investigate potential cardiotoxicity (manual patch clamp, CHO hERG cells); assay type: cell-based; settings: whole cell patch clamp, tail current
Description: CHO hERG cells were grown in a culture dish containing the above medium, and cultured in an incubator at 37° C. and 5% CO2. CHO hERG cells were transferred to circular glass slides placed in the culture dish 24-48 hours prior to electrophysiological experiments and grown under the same medium and culture conditions as above. The density of CHO hERG cells on each circular slide shall meet the requirement that most of the cells are independent and individual.
2: Preparation of Experimental Solutions
3: Electrophysiological Recording System
A manual patch clamp system (HEKA EPC-10 signal amplifier and digital conversion system, purchased from HEKA Electronics, Germany) is used in this experiment for whole cell currents recording. A circular slide with CHO hERG cells grown on its surface was placed in an electrophysiology recording tank under an inverted microscope. The extracellular fluid was continuously perfused in the recording tank (about 1 ml per minute). A conventional whole cell patch clamp current recording technique was used in the experimental procedure. Unless otherwise specified, the experiments were carried out at conventional room temperature (about 25° C.). The cells were clamped at a voltage of −80 mV. The clamp voltage for cells was depolarized to +20 mV to activate the hERG potassium channel, and after 5 seconds, the cells were clamped to −50 mV to eliminate inactivation and generate a tail current. The tail current peak was used as the value of the hERG current magnitude. After the hERG potassium current recorded in the above step was stable under the continuous extracellular fluid perfusion in the recording tank, the drug to be tested can be perfused simultaneously and filled until the inhibitory effect of the drug on the hERG current reached a steady state. Generally, the superposition of the last three consecutive current recording lines was used as a criterion for judging whether or not the state was stable. After reaching a steady state, a wash with extracellular fluid perfusion was conducted until the hERG returned to that before the drug was added. One cell can be used to test one or more drugs, or multiple concentrations of the same drug, but need to be washed with an extracellular fluid between different drugs. Cisapride (purchased from Sigma) was used as a positive control in the experiment to ensure that the cells used were of normal quality.
4: Treatment and Dilution of Compounds
Prior to testing, the compounds were first diluted to 10, 3, 1, 0.3, and 0.1 mM stock solutions by a method of gradual dilution with DMSO, and were then diluted to the final M test concentration with extracellular fluids. The final concentration of DMSO in each of the other compound solutions was 0.1%, except that the DMSO concentration in the 30 μM compound test solution was 0.3%. The test concentration of the positive control (Cisapride) was 0.1 μM. All compound solutions were sonicated and shaken for a routine of 5 to 10 minutes to ensure complete dissolution of the compounds.
The test data were analyzed by HEKA Patchmaster, Microsoft Excel and data analysis software provided by Graphpad Prism.

[3] = Pharmacokinetic test in SD rats (oral 10 mg/kg, intravenous 1 mg/kg); assay type: in vivo; settings: SD rat; for F (po) %: oral 10 mg/kg vs intravenous 1 mg/kg; for clearance / half-life / AUC / Cmax / Tmax: male, plasma; for clearance / half-life: intravenous 1 mg/kg; for clearance: read-out: Cl (iv) (converted); for half-life: read-out: T½ (iv) h (converted); for AUC / Cmax / Tmax: oral 10 mg/kg
Description: SD rat, male (purchased from Shanghai Sippr-Bk Laboratory Animal Co., Ltd.), each tested compound was administered at a single dose to SD rats by oral administration (10 mg/kg, 3 rats in each group) and intravenous administration (1 mg/kg, 3 rats in each group) for the pharmacokinetic study. The tested compounds were dissolved using DMSO/[…] sodium chloride injection=5/95 (V/V), and vortexed for 1 minute, and after 1 minute of sonication, the compounds were formulated into solutions for administrations. Animals were fasted for 16-17 hours prior to oral administration and feeding was restored 4 hours after administration. After oral and intravenous administration, pharmacokinetic samples were collected from SD rats by jugular vein or cardiac puncture at the following time points: before administration, 5 minute, 15 minute, 30 minute, 1 hour, 2 hours, 4 hours, 6 hours, 8 hours and 24 hours after administration. 3 whole blood samples were collected at each time point, and the collected amount was about 0.2 mL, and the collected samples were anticoagulated by heparin sodium. After collection, the blood samples were immediately placed on ice and centrifuged to separate plasma within 30 minutes (centrifugation conditions: 8000 rpm, 6 minute, 2-8° C.). The collected plasma was stored at −70° C. prior to analysis. 50 μL of plasma sample was brought into a 1.5 mL centrifuge tube, 250 μL of internal standard solution (blank with no internal standard but the same volume of methanol added) was added, blended with vortex, centrifuged at 15000 rpm for 5 minutes. 200 μL of supernatant was taken and added to a 96-well sample plate and the samples were analyzed by LC-MS/MS.

[4] = test system: TMD8 cells; assay: Cell proliferation inhibition in vitro, TMD8 cells by CCK-8 method; assay type: cell-based; settings: Homo sapiens, 72 hours, read-out: Inhibitions of cell activities IC50 (nM) TMD8
[5] = test system: OCI-LY10 cells; assay: Cell proliferation inhibition in vitro, OCI-ly10 cells by CCK-8 method; assay type: cell-based; settings: Homo sapiens, 72 hours, read-out: Inhibitions of cell activities IC50 (nM) OCI-LY10
[6] = molecular target: BTK kinase (Homo sapiens (Human), UniProt Q06187); assay: In vitro assay for the inhibition of BTK kinase activity (Mobility-Shift Assay); assay type: biochemical
Outline: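 Fluorescently labelled peptide substrate converted by the kinase; substrate and phosphorylated product separated by charge on a microfluidic chip (mobility shift) and quantified separately. Results expressed as conversion rate; control wells received 100% DMSO.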

Sequence of BTK kinase (Q06187 whole entry): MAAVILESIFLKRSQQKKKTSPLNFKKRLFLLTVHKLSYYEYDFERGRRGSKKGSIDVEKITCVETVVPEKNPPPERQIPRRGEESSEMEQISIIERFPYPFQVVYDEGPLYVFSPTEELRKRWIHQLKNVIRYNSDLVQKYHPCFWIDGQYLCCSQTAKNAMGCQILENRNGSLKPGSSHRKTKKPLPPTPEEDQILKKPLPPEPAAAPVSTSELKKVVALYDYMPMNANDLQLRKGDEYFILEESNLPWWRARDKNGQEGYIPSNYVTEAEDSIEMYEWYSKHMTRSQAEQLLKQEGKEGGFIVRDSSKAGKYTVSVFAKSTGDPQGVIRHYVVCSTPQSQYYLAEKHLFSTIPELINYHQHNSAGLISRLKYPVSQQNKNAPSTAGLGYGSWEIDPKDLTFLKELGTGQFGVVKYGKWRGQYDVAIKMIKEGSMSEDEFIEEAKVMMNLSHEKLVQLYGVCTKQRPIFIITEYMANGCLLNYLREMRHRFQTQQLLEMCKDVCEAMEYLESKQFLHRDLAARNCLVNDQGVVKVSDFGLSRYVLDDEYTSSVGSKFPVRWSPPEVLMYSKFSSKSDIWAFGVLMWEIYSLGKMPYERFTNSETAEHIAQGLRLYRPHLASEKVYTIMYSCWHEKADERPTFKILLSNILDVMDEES
Sequence of hERG potassium channel (Q12809 whole entry): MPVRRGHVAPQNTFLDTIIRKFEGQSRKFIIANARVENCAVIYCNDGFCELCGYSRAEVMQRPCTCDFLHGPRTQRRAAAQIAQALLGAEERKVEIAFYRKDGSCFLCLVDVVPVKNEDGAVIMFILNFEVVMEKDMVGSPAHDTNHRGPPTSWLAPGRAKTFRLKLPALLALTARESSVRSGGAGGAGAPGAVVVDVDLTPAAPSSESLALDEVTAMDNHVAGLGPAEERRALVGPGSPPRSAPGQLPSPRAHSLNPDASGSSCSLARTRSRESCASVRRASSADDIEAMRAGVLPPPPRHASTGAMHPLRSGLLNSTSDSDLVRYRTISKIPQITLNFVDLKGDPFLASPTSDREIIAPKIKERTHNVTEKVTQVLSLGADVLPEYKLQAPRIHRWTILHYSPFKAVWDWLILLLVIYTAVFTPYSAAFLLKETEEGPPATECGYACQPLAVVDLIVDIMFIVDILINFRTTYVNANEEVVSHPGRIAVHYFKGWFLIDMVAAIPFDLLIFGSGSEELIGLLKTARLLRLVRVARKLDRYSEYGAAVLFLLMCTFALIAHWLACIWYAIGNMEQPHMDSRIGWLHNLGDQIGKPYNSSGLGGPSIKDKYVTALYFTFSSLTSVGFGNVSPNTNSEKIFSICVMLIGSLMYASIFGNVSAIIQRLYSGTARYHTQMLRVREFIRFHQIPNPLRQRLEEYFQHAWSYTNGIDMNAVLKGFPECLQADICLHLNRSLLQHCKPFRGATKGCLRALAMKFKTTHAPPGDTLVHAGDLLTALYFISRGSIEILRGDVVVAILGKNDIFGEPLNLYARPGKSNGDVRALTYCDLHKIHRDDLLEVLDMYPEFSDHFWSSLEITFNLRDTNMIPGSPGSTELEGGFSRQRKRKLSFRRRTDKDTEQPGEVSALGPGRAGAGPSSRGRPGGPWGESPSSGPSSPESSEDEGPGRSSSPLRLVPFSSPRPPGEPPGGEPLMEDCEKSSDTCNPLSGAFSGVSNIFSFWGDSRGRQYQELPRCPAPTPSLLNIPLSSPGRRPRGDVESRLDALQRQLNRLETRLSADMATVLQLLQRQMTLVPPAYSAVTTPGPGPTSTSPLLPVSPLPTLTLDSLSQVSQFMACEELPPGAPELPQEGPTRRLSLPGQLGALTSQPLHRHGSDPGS

Row | SMILES | IC50 [1] [nM] | IC50 [2] [nM] | F (po) % [3] [%] | clearance [3] [mL/min/kg] | half-life [3] [min] | AUC [3] [ng·h/mL] | Cmax [3] [ng/mL] | Tmax [3] [min] | IC50 [4] [nM] | IC50 [5] [nM] | IC50 [6] [nM]
1 | C=CC(=O)N1C2CCC1(c1nc(-c3ccc(C(=O)Nc4ccccn4)cc3)c3c(N)nccn13)COC2 (centres unmarked) [Example 11] | 133 | > 30000 | 34.59 | 36.5 | 28.2 | 1580 | 1610 | 19.8 | 1.5 | 1.8 | 2.6
2 | C=CC(=O)N1[C@@H]2CC[C@@H](C2)[C@H]1c1nc(-c2ccc(C(=O)Nc3ccccn3)cc2)c2c(N)nccn12 [Example 22, 4-(3-((1R,3S,4S)-2-acryloyl-2-azabicyclo[2.2.1]heptan-3-yl)-8-aminoimidazo[1,5-a]pyrazin-1-yl)-N-(pyridin-2-yl)benzamide] | 182 | > 30000 | 36.56 | 58.5 | 36 | 1040 | 1160 | 15 | 4.2 | 0.38 | 3.3
3 | CC#CC(=O)N1C2CC[C@@H](C2)C1c1nc(-c2ccc(C(=O)Nc3cc(C(F)(F)F)ccn3)cc2)c2c(N)nccn12 (some centres unmarked) [Example 47] | 172 | > 30000 | 21.89 | 38 | 18 | 971 | 1120 | 15 | 4.6 | 0.41 | 5.2
4 | C=CC(=O)N1C2CC[C@@H](C2)C1c1nc(-c2ccc(C(C)(O)c3ccccc3)cc2)c2c(N)nccn12 (some centres unmarked) [Example 79] | 164 | > 30000 | 27.12 | 57.5 | 31.2 | 770 | 1110 | 12.6 | 1.2 | 0.13 | 4.9
